Values quoted from earlier work, collected in patent publication US20260183312A1, “A ROOM-TEMPERATURE STABLE, UNBUFFERED FORMULATION OF ROCURONIUM BROMIDE INJECTION FOR INTRAVENOUS ADMINISTRATION AND A METHOD THEREOF” (MAIVA PHARMA PRIVATE LIMITED, priority 2023, published 2026).

Compound: C=CC[N+]1([C@H]2C[C@H]3[C@@H]4CC[C@H]5C[C@H](O)[C@@H](N6CCOCC6)C[C@]5(C)[C@H]4CC[C@]3(C)[C@H]2OC(C)=O)CCCC1 [Rocuronium, Rocuronium bromide]
- Patients with severe burning pain on administration: up to 80%
